Assay results published in US20230372425A1, “TOPICAL COMPOSITIONS CONTAINING MANUKA OIL AND PALMAROSA OIL FOR TREATING SKIN CONDITIONS” (Manuka Therapeutics Ltd., priority 2021, published 2023).

What was measured:
[1] = system: gram positive bacteria S aureus, MRSA, S pyogenes, C. acnes; experiment: Average MIC over gram positive bacteria (Example 25); format: cell-based
Source text: Cannabidiol (CBD) content in CBD oil can be highly variable. For this reason, pure CBD isolate was used in these examples. 1% ECMT or 1% ECMO were used in these examples. Since CBD oil contains 5-10% CBD, a concentration of 0.05% CBD pure isolate (equating to 0.5% to 1% whole CBD oil) was used in these tests.
The average MIC of CBD alone is 0.2 times that of ECMO-314. The average MIC of CBD alone is 0.1 times that of ECMT-314. […] The average MIC of ECMT alone is 0.8 times that of ECMT-314.

C. acnes = experiment: MIC50 / MIC and MBC testing; format: cell-based, Cutibacterium acnes
Source text: (§1) The MIC50 test evaluates the lowest concentration of a test substance that prevents 50% of the growth of bacteria or fungi. This is a measure of the antibacterial or anti-fungal activity of the test sample. MBC is the lowest concentration of an antibacterial agent required to kill a bacterium. Similarly, Minimum fungicidal concentration (MFC) is the lowest concentration of an antifungal agent required to kill a fungus or a yeast.
(§2) The disclosed topical compositions may be tested for MIC50 and MBC using publicly available testing criteria. For example, test samples of the desired active compound can be prepared and serially diluted to give 11 or more different concentrations covering, for example, a 1000-fold range. For example, the test samples may include 50%-0.1% of a stock test sample (e.g., stock samples disclosed in Table 1) that are combined with select bacteria and fungi and incubated over a prescribed period of time. The MIC50 is useful to determine the lowest concentration of each test sample (mixture of active materials) that inhibits 50% of the growth of the microbe as determined by measurement of OD650 nm using a Versa Max 96 well plate reader. Measurement of cell concentration can be made at several time points.
Additional data Minimum Inhibitory Concentration (MIC) data on East Cape manuka oil and β-triketones provide further context. (Source: Plant & Food). MIC data is measured at the first sign of bacterial growth inhibition. These figures can be expected to be lower than MIC50 data, though this is not always the case. Published MIC data on palmarosa oil is also included for further context, In Vitro Antimicrobial and Antioxidant Activities of Some Cymbopogon Species in Essential Oil-Bearing Grasses—The genus Cymbopogon, Khunkitti, W. (2010) Chapter 6, Edited by A. Akhila., Medicinal and Aromatic Plants—Industrial Profiles, CRC Press Taylor & Francis Group. Example stock sample solutions of active mixtures that show promising results and are suitable for MIC50 and MBC testing are listed in Table 7. […]

S. aureus = experiment: MIC50 / MIC and MBC testing; format: cell-based, Staphylococcus aureus; details: Table 35 (Example 25); 1% ECMO or 1% ECMT, 0.05% CBD pure isolate
Source text: as §1
as §2, with “Measurement of cell concentration can be made at several time points.” left out
(§3) Additional data Minimum Inhibitory Concentration (MIC) data on East Cape manuka oil and β-triketones provide further context. […] MIC data is measured at the first sign of bacterial growth inhibition. […]

S. pyogenes = experiment: MIC50 / MIC and MBC testing; format: cell-based, Streptococcus pyogenes; details: Table 35 (Example 25); 1% ECMO or 1% ECMT, 0.05% CBD pure isolate
Source text: as §1
as §2, with “Measurement of cell concentration can be made at several time points.” left out
as §3

MRSA = experiment: MIC50 / MIC and MBC testing; format: cell-based, methicillin-resistant Staphylococcus aureus; details: Table 35 (Example 25); 1% ECMO or 1% ECMT, 0.05% CBD pure isolate
Source text: as §1
as §2, with “Measurement of cell concentration can be made at several time points.” left out
as §3

C=C(C)[C@@H]1CCC(C)=C[C@H]1c1c(O)cc(CCCCC)cc1O [0.05% CBD isolate, cannabidiol]
average MIC of ingredient alone, times that of ECMO-314 [1]: 0.2 times
average MIC of ingredient alone, times that of ECMT-314 [1]: 0.1 times
AVERAGE MIC ([1]; Table 35 (Example 25)): 0.018 % v/v
MIC of ingredient alone, times that of ECMT-314 (C. acnes; C. acnes considered on its own): 0.95 times
MIC50, expressed as CBD (C. acnes; Table 24, studies with manuka oil β-triketones and CBD): 0.006% CBD (v/v) %
MIC (C. acnes; Table 35 (Example 25), 1% ECMO or 1% ECMT, 0.05% CBD pure isolate): 0.006 % v/v
MIC (S. aureus): 0.05 % v/v
MIC (S. pyogenes): 0.002 % v/v
MIC (MRSA): 0.0125 % v/v
